Test results reported in patent US12286428B2 (BRISTOL-MYERS SQUIBB COMPANY, priority 2019, dated 2025).

What was measured:
[1] = target: T1, IRAK4 (Homo sapiens, UniProt Q9NWZ3); test: IRAK4 Inhibition Assay; assay type: biochemical; conditions: ATP 500 μM; FL-IPTSPITTTYFFFKKK peptide […]; IRAK4 0.6 nM; 60 min room temperature; Caliper LABCHIP 3000
T1 sequence (Q9NWZ3 1-460): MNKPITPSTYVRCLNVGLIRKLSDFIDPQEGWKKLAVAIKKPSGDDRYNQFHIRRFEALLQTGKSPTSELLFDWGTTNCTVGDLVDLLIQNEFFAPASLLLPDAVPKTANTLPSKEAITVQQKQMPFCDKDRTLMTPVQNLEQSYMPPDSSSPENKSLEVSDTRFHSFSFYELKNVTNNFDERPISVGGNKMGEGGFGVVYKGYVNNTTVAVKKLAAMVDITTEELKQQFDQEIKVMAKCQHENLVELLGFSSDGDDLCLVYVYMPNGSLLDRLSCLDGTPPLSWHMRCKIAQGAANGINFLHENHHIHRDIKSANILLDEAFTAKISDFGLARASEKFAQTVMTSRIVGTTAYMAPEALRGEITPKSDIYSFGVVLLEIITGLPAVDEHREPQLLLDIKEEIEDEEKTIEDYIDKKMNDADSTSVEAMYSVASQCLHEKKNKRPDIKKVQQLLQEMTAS
Procedure: The assays were performed in U-bottom 384-well plates. […] The reaction was initiated by the combination of IRAK4 with substrates and test compounds. The reaction mixture was incubated at room temperature for 60 min. and terminated by adding 45 μL of 35 mM EDTA to each sample. The reaction mixture was analyzed on the Caliper LABCHIP® 3000 (Caliper, Hopkinton, MA) by electrophoretic separation of the fluorescent substrate and phosphorylated product. […] The final concentrations of reagents in the assays are ATP, 500 μM; FL-[…] peptide 1.5 μM; IRAK4, 0.6 nM; and DMSO, 1.6%.

[2] = tested on: Human whole blood, IL-6 levels after TLR2 agonist lipoteichoic acid; test: IRAK4 Whole Blood Assay; assay type: cell-based; conditions: compounds 60 minutes at 37° C., lipoteichoic acid 10 μg/mL for 5 hours
Procedure: IRAK4 Whole Blood Assay Human whole blood containing the anti-coagulant ACD-A was plated in 384-well plate (25 μL/well) and incubated with compounds for 60 minutes at 37° C. in a 5% CO2 incubator. The blood was stimulated with a TLR2 agonist, 10 μg/mL final concentration of lipoteichoic acid (Invivogen, San Diego, CA) in 25 μL RPMI (Gibco) for 5 hours in a 5% CO2 incubator. At the end of the incubation, plates were centrifuged at 2300 rpm for 5 minutes. Supernatants were harvested and analyzed for IL-6 levels by Flow Cytometry beads assay (BD Biosciences, San Jose, CA).

IC50 [1] | IC50 [2] | Structure (SMILES)
0.0154 µM | 4.23 µM | CC[C@@H]1[C@H](F)C(=O)N[C@@H]1COC1=CC(F)=CC2C=C(C(N)=O)c3nccn3C12 (stereo partly drawn) [Example 58, 9-(((2S,3S,4S)-3-ethyl-4-fluoro-5-oxopyrrolidin-2-yl)methoxy)-7-fluoro-5a,9a-dihydroimidazo[1,2-a]quinoline-4-carboxamide]
0.0082 µM | 2.65 µM | CC[C@@H]1[C@H](F)C(=O)N[C@@H]1COc1ccc(F)c2cc(C(N)=O)c3nccn3c12 [Example 15, 9-(((2S,3S,4S)-3-ethyl-4-fluoro-5-oxopyrrolidin-2-yl)methoxy)-6-fluoroimidazo[1,2-a]quinoline-4-carboxamide]
0.001 µM | 0.557 µM | CC[C@@H]1CC(=O)N[C@@H]1COc1ccc(F)c2cc(C(N)=O)c3nccn3c12 [Example 14, 9-(((2S,3R)-3-ethyl-5-oxopyrrolidin-2-yl)methoxy)-6-fluoroimidazo[1,2-a]quinoline-4-carboxamide]
0.0034 µM | 3.46 µM | CC[C@@H]1CC(=O)N[C@@H]1COc1cccc2cc(C(N)=O)c3nc(C)cn3c12 [Example 11, 9-(((2S,3R)-3-ethyl-5-oxopyrrolidin-2-yl)methoxy)-2-methylimidazo[1,2-a]quinoline-4-carboxamide]
0.0028 µM | 2.13 µM | CC[C@@H]1[C@H](F)C(=O)N[C@@H]1COc1nccc2cc(C(N)=O)c3ncccc3c12 [Example 56, 1-(((2S,3S,4S)-3-ethyl-4-fluoro-5-oxopyrrolidin-2-yl)methoxy)-2,7-phenanthroline-6-carboxamide]
0.0022 µM | 10 µM | CC[C@@H]1[C@H](F)C(=O)N[C@@H]1COc1cccc2cc(C(N)=O)c3nc(C)cn3c12 [Example 12, 9-(((2S,3S,4S)-3-ethyl-4-fluoro-5-oxopyrrolidin-2-yl)methoxy)-2-methylimidazo[1,2-a]quinoline-4-carboxamide]
0.0026 µM | 1.65 µM | CC[C@@H]1CC(=O)N[C@@H]1COc1cccc2cc(C(N)=O)n3nccc3c12 [Example 35, 10-(((2S,3R)-3-ethyl-5-oxopyrrolidin-2-yl)methoxy)pyrazolo[5,1-a]isoquinoline-5-carboxamide]
0.0107 µM | 0.533 µM | CC[C@H]1[C@@H](COc2nccc3cc(C(N)=O)c4nc(C)cn4c23)NC(=O)C1(F)F [Example 21, 1-(((2S,3S)-3-ethyl-4,4-difluoro-5-oxopyrrolidin-2-yl)methoxy)-8-methylimidazo[1,2-a][1,7]naphthyridine-6-carboxamide]
0.0159 µM | 0.078 µM | CC[C@H]1[C@@H](COc2cccc3cc(C(N)=O)c4ncnn4c23)NC(=O)C1(F)F [Example 39, 9-(((2S,3S)-3-ethyl-4,4-difluoro-5-oxopyrrolidin-2-yl)methoxy)-[1,2,4]triazolo[1,5-a]quinoline-4-carboxamide]
0.0153 µM | 0.879 µM | CC[C@@H]1CC(=O)N[C@@H]1COc1nccc2cc(C(N)=O)c3ncccc3c12 [Example 55, 1-(((2S,3R)-3-ethyl-5-oxopyrrolidin-2-yl)methoxy)-2,7-phenanthroline-6-carboxamide]
0.0088 µM | 0.158 µM | CC[C@H]1[C@@H](COc2nccc3cc(C(N)=O)c4nccn4c23)NC(=O)C1(F)F [Example 20, 1-(((2S,3S)-3-ethyl-4,4-difluoro-5-oxopyrrolidin-2-yl)methoxy)imidazo[1,2-a][1,7]naphthyridine-6-carboxamide]
0.0021 µM | 4.78 µM | CC[C@@H]1OC(=O)N[C@@H]1COc1nccc2cc(C(N)=O)c3nccn3c12 [Example 22, 1-(((4R,5S)-5-ethyl-2-oxooxazolidin-4-yl)methoxy)imidazo[1,2-a][1,7]naphthyridine-6-carboxamide]
0.0007 µM | 0.159 µM | CC[C@@H]1[C@H](F)C(=O)N[C@@H]1COc1nccc2cc(C(N)=O)n3nccc3c12 [Example 36, 1-(((2S,3S,4S)-3-ethyl-4-fluoro-5-oxopyrrolidin-2-yl)methoxy)pyrazolo[5,1-a][2,7]naphthyridine-6-carboxamide]
0.0291 µM | 2.02 µM | CC[C@@H]1CC(=O)N[C@@H]1COc1nccc2cc(C(N)=O)c3nc(C)nn3c12 [Example 49, 9-(((2S,3R)-3-ethyl-5-oxopyrrolidin-2-yl)methoxy)-2-methyl-[1,2,4]triazolo[1,5-a][1,7]naphthyridine-4-carboxamide]
0.0023 µM | 2.51 µM | CC[C@@H]1[C@H](F)C(=O)N[C@@H]1COC1=CC=CC2C=C(C(N)=O)n3nc(C)cc3C12 (stereo partly drawn) [Example 62, 10-(((2S,3S,4S)-3-ethyl-4-fluoro-5-oxopyrrolidin-2-yl)methoxy)-2-methyl-6a,10a-dihydropyrazolo[5,1-a]isoquinoline-5-carboxamide]
0.0026 µM | 0.593 µM | CC[C@H]1[C@@H](COc2cccc3cc(C(N)=O)c4nccn4c23)NC(=O)[C@@H]1F [Example 4, 9-(((2S,3S,4R)-3-ethyl-4-fluoro-5-oxopyrrolidin-2-yl)methoxy)imidazo[1,2-a]quinoline-4-carboxamide]
